Results taken from PubChem BioAssay (NCI).
Values joined by “and” are separate entries in the source; they are usually repeats but may differ in a detail not shown here. Equal values may be shown once.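 Protocol summary: plate cells (96-well), add compound at 5 concentrations, incubate 48 h, interpolate endpoints linearly. GI50 = concentration required for 50% inhibition of growth. TGI denotes the concentration required for complete inhibition of growth.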

Assays:
Experiment in all cases: inhibition of tumour cell growth, NCI panel, 48 h
A498 renal = tested on: A498 renal
HL-60(TB) leukemia = tested on: HL-60(TB) leukemia
LOX IMVI melanoma = tested on: LOX IMVI melanoma
M14 melanoma = tested on: M14 melanoma
NCI-H226 lung = tested on: NCI-H226 lung
SF-295 CNS = tested on: SF-295 CNS
SN12C renal = tested on: SN12C renal
SW-620 colon = tested on: SW-620 colon
UO-31 renal = tested on: UO-31 renal
MDA-MB-231 breast = tested on: MDA-MB-231 breast

SMILES | TGI (A498 renal) | TGI (HL-60(TB) leukemia) | TGI (LOX IMVI melanoma) | TGI (M14 melanoma) | TGI (NCI-H226 lung) | TGI (SF-295 CNS) | TGI (SN12C renal) | TGI (SW-620 colon) | TGI (UO-31 renal) | TGI (MDA-MB-231 breast) | GI50 (A498 renal) | GI50 (M14 melanoma) | GI50 (MDA-MB-231 breast) | GI50 (NCI-H226 lung) | GI50 (SN12C renal) | GI50 (SW-620 colon) | GI50 (UO-31 renal)
O=S(=O)(c1ccc(-c2nnc(-c3ccc(F)cc3)o2)cc1)c1ccc(-c2nnc(-c3ccc(F)cc3)o2)cc1 | 58.6 µM | > 100 µM | > 100 µM | > 100 µM | > 100 µM | > 100 µM | > 100 µM | > 100 µM | > 100 µM |  |  |  |  |  |  |  | 
O=NN(CCF)C(=O)NC1CC2CCC1C2 (stereo not given) | > 100 µM | > 100 µM | > 100 µM |  |  | > 100 µM | > 100 µM | > 100 µM | > 100 µM |  |  |  |  |  |  |  | 
CC(C)(O)C1CC[C@]2(C)[C@H]3CC[C@@H]4[C@@]5(C)CCCC(C)(C)[C@@H]5CC[C@@]4(C)[C@]3(C)CC[C@@H]12 (stereo not given in full) | > 100 µM | > 100 µM | > 100 µM | > 100 µM |  | > 100 µM | > 100 µM | > 100 µM |  | > 100 µM |  |  |  |  |  |  | 
CN(C)CCNC(=O)c1cccc2cc3cc(O)ccc3nc12 | 2.42 µM | 2.37 µM | 2.72 µM |  | 2.48 µM | 3.4 µM | 4.65 µM | 3.46 µM |  |  |  |  |  |  |  |  | 
CCOC(=O)C(C)Sc1nnc(COc2ccccc2OC)n1-c1ccccc1 (stereo not given) | > 100 µM | > 100 µM | 34.4 µM | > 100 µM | > 100 µM | > 100 µM | > 100 µM | 47 µM | > 100 µM |  |  |  |  |  |  |  | 
Oc1ccccc1C1C=C(c2ccccc2)NC(N2CCCCC2)=C1c1nc2ccccc2[nH]1 (stereo not given) |  | 43 µM | 31.2 µM | 25.9 µM | 35.1 µM | 29.2 µM | 29.7 µM | 30.5 µM | 23.7 µM | 24.4 µM |  |  |  |  |  |  | 
CC12CCCCC1=[N+]([O-])C(C)(C)N2O (stereo not given) |  |  | > 100 µM | > 100 µM | > 100 µM | > 100 µM | > 100 µM | > 100 µM | > 100 µM | > 100 µM |  |  |  |  |  |  | 
COc1ccccc1N=Nc1c(O)c(S(=O)(=O)O)cc2cc(S(=O)(=O)O)ccc12 | > 100 µM |  | > 100 µM | > 100 µM | > 100 µM | > 100 µM | > 100 µM | > 100 µM | > 100 µM | > 100 µM |  |  |  |  |  |  | 
O=C1Nc2cc([N+](=O)[O-])c(Br)cc2C1=O | > 100 µM |  | 35.2 µM | 30.1 µM | 76.4 µM | 14.3 µM | 32.7 µM | 38.6 µM | 36.2 µM |  |  |  |  |  |  |  | 
NC(Cc1c[nH]c2cc([N+](=O)[O-])ccc12)C(=O)O (stereo not given) | > 100 µM |  | > 100 µM | > 100 µM | > 100 µM | > 100 µM | > 100 µM | > 100 µM | > 100 µM | > 100 µM |  |  |  |  |  |  | 
CCCc1c(C(=O)OCC)[nH]c(-c2ccc(-c3[nH]c(C(=O)OCC)c(CCC)c3C(=O)OCC)s2)c1C(=O)OCC | > 100 µM | > 100 µM | 66.3 µM | > 100 µM | > 100 µM | > 100 µM | > 100 µM | > 100 µM | > 100 µM |  |  |  |  |  |  |  | 
Cc1cccc2nc3c(=O)[nH]c(=O)nc-3n(C)c12 |  | 45.9 µM | > 100 µM | > 100 µM | > 100 µM | > 100 µM | > 100 µM | > 100 µM |  | > 100 µM |  |  |  |  |  |  | 
N#C/C(=C\c1ccc([N+](=O)[O-])s1)c1nc2cc(Cl)ccc2s1 | > 100 µM |  |  | 1.68 µM | 2.36 µM |  | 1.43 µM | 2.09 µM | 2.8 µM | 1.21 µM | 3.56 µM | 0.382 µM | 0.297 µM | 0.69 µM | 0.296 µM | 0.354 µM | 0.602 µM
CN1CN(c2ccccc2)C2(CCN(CCCCCCF)CC2)C1=O |  | > 100 µM | > 100 µM | > 100 µM | > 100 µM | > 100 µM | > 100 µM | > 100 µM | 94.2 µM | > 100 µM |  |  |  |  |  |  | 
Cc1ccc(-n2cc(-c3ccc(Cl)cc3)c3c(NN)ncnc32)cc1 |  | 4.99 µM | 19.7 µM | 3.75 µM | 7.96 µM | 10.7 µM | 13.9 µM | 26.2 µM | 12.3 µM | > 100 µM |  |  |  |  |  |  | 
Cc1cn(C2CC(CCCO)C(CO)O2)c(=O)[nH]c1=O (stereo not given) | > 100 µM | > 100 µM | > 100 µM | > 100 µM | > 100 µM | > 100 µM | > 100 µM | > 100 µM | > 100 µM |  |  |  |  | > 100 µM and 18.4 µM |  |  | 
Cn1c([C@H](C#N)C(=O)c2cc(O)ccc2[N+](=O)[O-])nc2ccccc21 | > 100 µM | > 100 µM | > 100 µM | > 100 µM |  | > 100 µM | > 100 µM |  | > 100 µM | > 100 µM |  |  |  |  |  |  | 
CC1(C)C2CCC3(OCCO3)C1C(O)C2 (stereo not given) | > 100 µM | > 100 µM | > 100 µM | > 100 µM | > 100 µM | > 100 µM |  | > 100 µM | > 100 µM |  |  |  |  |  |  |  | 
Cc1ccc(S(=O)(=O)NC(=O)NC(CCCCN=C(N)N)C(=O)O)cc1 (stereo not given) |  | > 100 µM | > 100 µM | > 100 µM |  | > 100 µM | > 100 µM | > 100 µM | > 100 µM | > 100 µM |  |  |  |  |  |  | 
CCSCN(C)c1nc(N(C)C)nc(N(C)C)n1 | > 100 µM | 81.9 µM | > 100 µM | > 100 µM |  | > 100 µM | > 100 µM | > 100 µM | > 100 µM |  |  |  |  |  |  |  | 
CC(=O)OC12c3ccccc3C(c3ccccc31)C1C(=O)N(c3ccccn3)C(=O)C12 (stereo not given) |  | > 100 µM | > 100 µM | > 100 µM | > 100 µM | > 100 µM | > 100 µM | > 100 µM | 57.9 µM | > 100 µM |  |  |  |  |  |  | 
COc1cc(C2C(Cl)C(=O)N2NC(=O)c2ccc(NC(C)=O)cc2)ccc1O (stereo not given) | > 100 µM | > 100 µM | > 100 µM | > 100 µM | > 100 µM | > 100 µM | > 100 µM | > 100 µM | > 100 µM |  |  |  |  |  |  |  | 
Cc1ccc(N(O)C(C)(C)C)cc1 | > 100 µM | > 100 µM | > 100 µM |  | > 100 µM | > 100 µM | > 100 µM | > 100 µM | > 100 µM |  |  |  |  |  |  |  | 
